Reference: EP1268431B1 (Wyeth, priority 2000, dated 2001)
Where “and” joins values, the source holds several entries; their conditions need not be identical. Identical values can stand only once.

How the values were obtained:
Raf-1 (c-Raf) = biological target: T1, Raf-1 (c-Raf) (Homo sapiens, UniProt P04049); assay: Raf1 Kinase Cascade Assay; assay type: biochemical
T1 construct: Sf9 insect cell lysate containing full length 6his-tagged recombinant human c-Raf; 6his; host or cells: Sf9 insect cells (c-Raf, used as lysate); E. coli (GST-MEK1, GST-MAPK)
Protocol: (Specific Activity: -200U/ml). Human Non-active Mek-1-GST and human GST-MAP kinase (recombinant proteins produced in E. coli).
• Assay Dilution Buffer (ADB); 20mM MOPS, pH 7.2, 25mM β-glycerol phosphate, 5mM EGTA, 1mM sodium orthovanadate, 1mM dithiothreitol. • Magnesium/ATP Cocktail: 500µM cold ATP and 75 mM magnesium chloride in ADB. • Active Kinase: Human Active c-Raf: Use at 0.4U per assay point. • Non-active GST-MEK1: Use at 0.1 µg per assay point. • Non-active GST-p42 MAP Kinase: Use at 1.0 µg per assay point.
• TBST - Tris (50 mM, pH 7.5), NaCl (150 mM), Tween-20 (0.05 %) • Superblock (Pierce) • Anti-GST Ab (Pharmacia) • Anti-Phospho MAPK (Sigma) • Anti-Mouse Ab / Europium conjugate (Wallac)
IC50 determinations - done on compounds from single point assays with >80% inhibition. Typically Raf-1 assay is run at compound concentrations from 10 µM to 30 nM in half log dilutions. (% inhibition is determined for each compound concentration).

[1] = test system: human adenocarcinoma cell line CaCo-2; assay: Cell Based Screen for Inhibitors of Raf Kinase, CaCo-2 cells; conditions: CaCo-2, four days, SRB
Protocol: • Cell Lines: Human adenocarcinoma cell line LoVo which is known to be growth inhibited by low nM concentrations of a reference standard inhibitor of Ras and human adenocarcinoma cell line CaCo-2, which is known to be growth resistant to the same reference compound. • Cell Media: RPMI 1640 with 10% Fetal Bovine Serum supplemented with L-glutamine and Pennicilin/Streptomycin. • Compounds: Supplied usually as a 10 mM stock in 100% DMSO. • Normal Saline: 150 mM NaCl • Trichloroacetic Acid (TCA): 50% (w/v) in water • Sulforhodamine B (SRB): 0.4% (w/v) in 1% Acetic Acid • Tris Base: 10 mM in water
Cells are plated at 2000 cells per well for cell line LoVo and 1500 cells for cell line CaCo-2 in 96 well plates. Cells are plated in media (200 µl) and allowed to adhere overnight at 37° C. At 24 hours post plating, compounds are added directly at a volume of 0.5 µl. For the qualitative screen (compounds screened at 25 µM) compound is added directly to cells. For the quantitative screen, compound is first diluted in DMSO to generate concentrations of compound or reference standard of: 1, 5, 10 and 25 µM. It is advisable to make the dilutions in an identical 96 well plate so that compounds may be added using a multichannel micropipettor set at 0.5 µl. The cells are then incubated for four days after which the media is removed using a 12 well manifold by first tipping the plate forward at a 45 degree angle and then inserting the manifold in an upright orientation to prevent the tips of the manifold from disturbing cells at the bottom of the plate. 200 µl of normal saline is then added to each well using an 8 well multichannel pipettor, followed by the careful addition of 50 µl of 50% TCA. The plates are then incubated for 2 hours at 4 ° C, after which the supernatant is removed using the same technique as above and the plated washed twice with 200 µl water. The plates are then air dried and 50 µl of SRB stock solution is carefully added so that the entire bottom of each well is covered. This again may be used using an 8 well multichannel pipettor. The SRB is incubated with fixed cells for 15 minutes at room temperature after which the SRB is removed with the manifold as described above and the plates washed twice with 350 µl of 1% acetic acid per well each time.The plates are then air dried after which the bound SRB is released from protein by the addition of 200 µl of Tris base. Resolubilizing the SRB is aided by placing the plates on a rotator for 15-30 minutes. The absorbance of each well is determined at 550 or 562 nm using a microtiter plate reader.
Each compound or dilution thereof is performed in triplicate. Outliers are identified by visual inspection of the data. Each plate should have a "0" control (vehicle only).
Quantitative Assay: A standard curve is constructed by plotting the concentration of compound against the average absorbance calculated at that concentration. A curve is plotted and the concentration at which the curve passes through the 50% the absorbance mark seen in the "0" control well is the IC50 calculated for that compound. […]

[2] = test system: Human adenocarcinoma cell line LoVo; assay: Cell Based Screen for Inhibitors of Raf Kinase, LoVo cells; conditions: four days, SRB

Row | IC50 (Raf-1 (c-Raf)) | IC50 [1] | IC50 [2] | IC50 ([1]; Homo sapiens, Caco-2, 96 h) | IC50 ([2]; Homo sapiens, 96 h) | Molecule
1 | 9 nM and 12 nM | 1000 nM | 5.6 nM | – | – | 4-{3-chloro-4-[(1-methyl-1H-imidazol-2-yl)sulfanyl]anilino}-7-{5-[(4-ethyl-1-piperazinyl)methyl]-2-furyl}-3-quinolinecarbonitrile [Example 156]
2 | 2.5 nM and 1.8 nM | > 1000 nM | 11 nM | – | – | 4-{3-chloro-4-[(1-methyl-1H-imidazol-2-yl)sulfanyl]anilino}-7-[4-(1-piperidinylmethyl)phenyl]-3-quinolinecarbonitrile [Example 136]
3 | 50 nM | – | – | – | – | N#Cc1cnc2cc(-c3csc(CN4CCCCC4)c3)ccc2c1Nc1ccc(Sc2ccccc2)c(Cl)c1 [Example 462, 4-{[3-chloro-4-(phenylsulfanyl)phenyl]amino}-7-[5-(1-piperidinylmethyl)-3-thienyl]-3-quinolinecarbonitrile]
4 | 16 nM | > 1000 nM | 33 nM | – | – | Cn1ccnc1Sc1ccc(Nc2c(C#N)cnc3cc(-c4ccc(CN5CCNCC5)cc4)ccc23)cc1Cl [Example 97, 4-({3-Chloro-4-[(1-methyl-1H-imidazol-2-yl)sulfanyl]phenyl}amino)-7-[4-(1-piperazinylmethyl)phenyl]-3-quinolinecarbonitrile]
5 | 1 nM | > 10000 nM | 30 nM | – | – | Cn1ccnc1Sc1ccc(Nc2c(C#N)cnc3cc(-c4cnc(N5CCOCC5)nc4)ccc23)cc1Cl [Example 191, 4-{3-chloro-4-[(1-methyl-1H-imidazol-2-yl)sufanyl]anilino}-7-[2-(4-morpholinyl)-5-pyrimidinyl]-3-quinolinecarbonitrile]
6 | 5.6 nM | 810 nM | 6.2 nM | – | – | Cn1ccnc1Sc1ccc(Nc2c(C#N)cnc3cc(-c4ccc(CN5CCOCC5)cc4)ccc23)cc1Cl [Example 138]
7 | 20 nM | – | – | – | – | Cn1ccnc1Sc1ccc(Nc2c(C#N)cnc3cc(-c4ccc(CN5CCCCC5)o4)ccc23)cc1Cl [Example 155, 4-{3-chloro-4-[(1-methyl-1H-imidazol-2-yl)sulfanyl]anilino}-7-[5-(1-piperidinylmethyl)-2-furyl]-3-quinolinecarbonitrile]
8 | 3.7 nM | 930 nM | 5.6 nM | – | – | 4-({3-chloro-4-[(1-methyl-1H-imidazol-2-yl)sulfanyl]phenyl}amino) -7-[5-(1-pyridinyl]-3-quinolinecarbonitrile [Example 180]
9 | 6 nM | > 1000 nM | 5.3 nM | – | – | 4-({3-chloro-4-[(1-methyl-1H-imidazol-2-yl)sulfanyl]phenyl}amino)-7-[6-(1-piperidinyl)-3-pyridinyl]-3-quinolinecarbonitrile [Example 211]
10 | 6 nM | – | 6 nM | – | – | Cn1ccnc1Sc1ccc(Nc2c(C#N)cnc3cc(-c4csc(CN5CCOCC5)c4)ccc23)cc1Cl [Example 33, 4-{3-Chloro-4-[(1-methyl-1H-imidazol-2-yl)sulfanyl]anilino}-7-[5-(4-morpholinylmethyl)-3-thienyl]-3-quinolinecarbonitrite]
11 | – | – | – | > 1000 nM | 7 nM | CN(CCO)c1ccc(-c2ccc3c(Nc4ccc(Sc5nccn5C)c(Cl)c4)c(C#N)cnc3c2)cn1 [Example 216, 4-({3-chloro-4-[(1-methyl-1H-imidazol-2-yl)sulfanyl]phenyl}amino)-7-{6-[(2-hydroxyethyl)(methyl)amino]-3-pyridinyl}-3-quinolinecarbonitrile]
12 | – | – | – | > 1000 nM | 36 nM | Cn1ccnc1Sc1ccc(Nc2c(C#N)cnc3cc(-c4ccc(CN5CCN(CCO)CC5)cn4)ccc23)cc1Cl [Example 217, 4-({3-chloro-4-[(1-methyl-1H-imidazol-2-yl)sulfanyl]phenyl}amino)-7-(5-{[4-(2-hydroxyethyl)-1-piperazinyl]methyl}-2-pyridinyl)-3-quinolinecarbonitrile]
13 | – | 5000 nM | – | > 10000 nM | 50 nM | Cn1ccnc1Sc1ccc(Nc2c(C#N)cnc3cc(-c4ccc(C=O)cn4)ccc23)cc1Cl [Example 170, 4-{3-chloro-4-[(1-methyl-1H-imidazol-2-yl)sulfanyl]anilino}-7-(5-formyl-2-pyridinyl)-3-quinolinecarbonitrile]
14 | – | – | 6 nM | > 10000 nM | < 5 nM | Cn1ccnc1Sc1ccc(Nc2c(C#N)cnc3cc(-c4ccc(CN5CCOCC5)c(CN5CCOCC5)c4)ccc23)cc1Cl [Example 35, 7-[3,4-Bis(4-morpholinylmethyl)phenyl]-4-[3-chloro-4-[(1-methyl-1H-imidazol-2-yl)sulfanyl]anilino}-3-quinolinecarbonitrile]
